# In patent US11771661B2, “Method of treating post-traumatic stress disorder” (ICAHN SCHOOL OF MEDICINE AT MOUNT SINAI, priority 2013, dated 2023):
# Legend:
# [1] = IN vs IV; cited from earlier work
# [2] = test system: patients with chronic PTSD; test: Example 2: side effects (PRISE, CADSS, BPRS, YMRS item 1) after IV infusion; assay type: in vivo, human
# Protocol: General side effects and possible dissociative, psychotomimetic, and manic symptoms were measured with the Patient-Rated Inventory of Side Effects (PRISE), Clinician-Administered Dissociative States Scale (CADSS), Brief Psychiatric Rating Scale (BPRS) and Young Mania Rating Scale (YMRS) item 1 (elevated mood), respectively.
# Secondary analyses also examined the effect of depression on PTSD symptoms and the interaction between treatment and depression. A mixed model approach was used to examine the effects of treatment, baseline MADRS score, and 24-hour MADRS score using only first-period data. Safety and tolerability were analyzed using descriptive statistics.
# [3] = test system: treatment-resistant major depression; details: 0.5 mg/kg intravenous infusion over 40 minutes; cited from earlier work
# [4] = cited from earlier work
# [5] = Side effects of IV administration of ketamine; assay type: in vivo, human
# Protocol: IV administration of ketamine can be on an as needed basis, e.g., when symptoms of PTSD appear. For IV administration, ketamine (e.g., doses of at least 0.5 mg/kg) may be administered over a period of 40 minutes. IV administration may be continued for up to 1 week, or longer. IV administration of ketamine may also be effected at least twice, at least three times, at least four times, at least five time, at least six times, at least seven times per week, and may be continued over a period of two, three, four, five, six, seven, eight, nine or 10 weeks, or more. […] Any side effects observed are typically mild, e.g., euphoria, elevated BP, increased libido, perceptual disturbances, and furthermore these effects typically abate within 80 minutes post-infusion.
# [6] = test system: patients with treatment resistant depression (TRD), co-morbid current PTSD; test: Example 1: open-label ketamine infusion in treatment resistant depression patients, case studies with co-morbid PTSD; assay type: in vivo, human; details: for IES score: baseline 48
# Protocol: In a ketamine infusion study in patients with treatment resistant depression (TRD), ketamine (0.5 mg/kg IV) was administered open-label and combined with pre-infusion treatment with a single oral dose of lamotrigine (300 mg) or placebo administered under double-blind conditions. Preliminary analyses were recently performed on a sample of 16 patients. […] A strong positive correlation between individual childhood trauma (abuse and/or neglect) and the antidepressant response (MADRS: r=0.55, p=0.03; QIDS-SR: r=0.59, p=0.02).
# The effect of ketamine on Hamilton Anxiety Rating Scale (HAM-A) scores was also measured. A strong positive correlation between the magnitude of the ketamine-induced reduction in HAM-A scores and personal history of childhood trauma measured using the Childhood Trauma Questionnaire (CTQ; n=15, r=0.59, p=0.02) was observed. […] Patient A, suffered from distressing intrusive memories, nightmares, flashbacks, hypervigilance, poor concentration, and depressed mood. Patient A described their PTSD and MDD symptoms as chronic, but having intensified over time, due to ongoing events in their life.
# After observing the magnitude of the therapeutic effect of ketamine in Patient A, TRD patients with a co-morbid current PTSD diagnosis were administered the Clinician-Administered PTSD Scale (CAPS) and the Impact of Events Scale (IES) before and after ketamine infusion. […] The day after ketamine infusion, Patient M reported that they felt an “intellectual distance” from the emotional content of prior traumatic events that allowed them to feel more in control. Patient M further described feeling relieved of a compulsion to continuously analyze their past, identify ways in which they might have circumvented trauma, and subsequently punish themself for their failure to avoid trauma. One week post-infusion, Patient M's CAPS score had dropped by 90% and could be considered a remission (defined as CAPS<20). Two weeks post-infusion, Patient M maintained their “intellectual distance” from the emotional content associated with their trauma.
# breakthrough pain (BTP) = details: cited from earlier work
# [7] = 0.5 mg/kg IV open-label, 16 TRD patients
smiles,measurement,setting,value
"CNC1(c2ccccc2Cl)CCCCC1=O (centres unmarked) [ketamine, 2-(2-chlorophenyl)-2-(methylamino)-cyclohexanone]",intranasal plasma levels (pain treatment) lower than intravenous ketamine studies in depression,[1],3-4 fold
same,psychotic or manic symptoms,"[2]; BPRS, YMRS item 1",No emergence of significant psychotic or manic symptoms
same,patients requiring acute beta-blocker treatment for blood pressure elevation,"[2]; during infusion, systolic >180 and/or diastolic >100",Three
same,time by which dissociative symptoms had resolved,[2]; from start of infusion,≤ 120 min
same,time of peak of dissociative symptoms,[2]; from start of infusion,40 min
same,safety and tolerability,[2]; single dose IV,safe and well-tolerated
same,duration of improvements in depression,[3],up to 1 week
same,serious adverse events,[3],no serious adverse events
same,time to improvements in depression post-injection,[3],≤ 2 h
same,"dose at which mild adverse effects (dysphoria, hallucinations) can occur",[4]; in vivo,greater than 50 mg
same,total intranasal dose usually required for mild adverse effects,[4]; intranasal,greater than 100 mg
same,serious adverse events caused by IV administration,[5],No serious adverse events
same,time by which mild side effects typically abate post-infusion,[5],≤ 80 min
same,"MADRS clinical depression scores, baseline to 24 hours post-infusion",[6]; [7],reduced clinical depression scores
same,"self-reported mood, QIDS-SR",[6]; [7],improved
same,IES score,"[6]; Patient M, +1 week",5
same,CAPS score,"[6]; Patient M, +1 week, baseline 81",8
same,IES score,"[6]; Patient M, +2 weeks",15
same,CAPS score,"[6]; Patient M, +2 weeks, baseline 81",27
same,IES score,"[6]; Patient M, +40 min post-ketamine",33
same,IES score,"[6]; Patient M, +240 min",3
same,IES score,"[6]; Patient M, +24 hours",16
same,IES score,"[6]; Patient M, +72 hours",5
same,drop in CAPS score,"[6]; Patient M, one week post-infusion, baseline 81",90%
same,breakthrough pain vs placebo,breakthrough pain (BTP); 10-50 mg intranasal in incremental 10 mg doses every 90 seconds,lower BTP
same,side effects,breakthrough pain (BTP); 10-50 mg intranasal,very few side effects
